*1 amine or outer side, *2 acyl side, *3 side chain or, on linkers, in order; H or OH if unused. Where a SMILES comes first, the peptide text is derived from it. Bridges are numbered along the chain shown (N, C = ends). [ ]: non-standard residue; d: D form. Trp(2-yl) = O=C([C@H](Cc1c([*:3])[nH]c2ccccc12)N[*:1])[*:2]; Leu(4R-OH,5-OH) = C[C@](O)(CO)C[C@H](N)C(=O)O; cisHyp = O=C(O)[C@@H]1C[C@H](O)CN1
Assays:
[1] = molecular target: T1, Solute carrier organic anion transporter family member 1B3 (Homo sapiens, UniProt Q9NPD5); experiment: Inhibition of human liver OATP1B3 expressed in HEK293 Flp-In cells assessed as reduction in [3H]E17-betaG uptake at 20 uM incubated for 5 mins by scintillation counting; conditions: hek293, 5 min
T1 sequence (Q9NPD5 whole entry): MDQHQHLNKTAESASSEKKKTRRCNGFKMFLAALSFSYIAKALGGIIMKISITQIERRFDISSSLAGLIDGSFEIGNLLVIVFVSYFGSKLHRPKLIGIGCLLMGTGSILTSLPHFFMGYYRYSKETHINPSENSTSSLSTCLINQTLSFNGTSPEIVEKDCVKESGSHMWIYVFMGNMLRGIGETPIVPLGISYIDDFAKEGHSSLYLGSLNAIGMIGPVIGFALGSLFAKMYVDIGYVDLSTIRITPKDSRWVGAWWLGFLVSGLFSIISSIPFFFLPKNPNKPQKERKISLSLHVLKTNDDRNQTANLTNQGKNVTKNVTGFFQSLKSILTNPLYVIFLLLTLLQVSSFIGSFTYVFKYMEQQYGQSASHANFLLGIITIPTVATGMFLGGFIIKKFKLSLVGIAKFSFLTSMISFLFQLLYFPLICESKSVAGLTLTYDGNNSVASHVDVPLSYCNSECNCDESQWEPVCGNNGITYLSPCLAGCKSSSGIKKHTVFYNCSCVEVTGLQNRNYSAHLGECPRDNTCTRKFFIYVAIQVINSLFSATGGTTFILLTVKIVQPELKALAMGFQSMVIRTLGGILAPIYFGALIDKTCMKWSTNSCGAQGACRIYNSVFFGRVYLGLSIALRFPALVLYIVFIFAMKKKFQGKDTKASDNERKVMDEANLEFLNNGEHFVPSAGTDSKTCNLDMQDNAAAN

[2] = molecular target: T2, Solute carrier organic anion transporter family member 1B1 (Homo sapiens, UniProt Q9Y6L6); experiment: Inhibition of human liver OATP1B1 expressed in HEK293 Flp-In cells assessed as reduction in E17-betaG uptake at 20 uM by scintillation counting; conditions: hek293, 20 µM
T2 sequence (Q9Y6L6 whole entry): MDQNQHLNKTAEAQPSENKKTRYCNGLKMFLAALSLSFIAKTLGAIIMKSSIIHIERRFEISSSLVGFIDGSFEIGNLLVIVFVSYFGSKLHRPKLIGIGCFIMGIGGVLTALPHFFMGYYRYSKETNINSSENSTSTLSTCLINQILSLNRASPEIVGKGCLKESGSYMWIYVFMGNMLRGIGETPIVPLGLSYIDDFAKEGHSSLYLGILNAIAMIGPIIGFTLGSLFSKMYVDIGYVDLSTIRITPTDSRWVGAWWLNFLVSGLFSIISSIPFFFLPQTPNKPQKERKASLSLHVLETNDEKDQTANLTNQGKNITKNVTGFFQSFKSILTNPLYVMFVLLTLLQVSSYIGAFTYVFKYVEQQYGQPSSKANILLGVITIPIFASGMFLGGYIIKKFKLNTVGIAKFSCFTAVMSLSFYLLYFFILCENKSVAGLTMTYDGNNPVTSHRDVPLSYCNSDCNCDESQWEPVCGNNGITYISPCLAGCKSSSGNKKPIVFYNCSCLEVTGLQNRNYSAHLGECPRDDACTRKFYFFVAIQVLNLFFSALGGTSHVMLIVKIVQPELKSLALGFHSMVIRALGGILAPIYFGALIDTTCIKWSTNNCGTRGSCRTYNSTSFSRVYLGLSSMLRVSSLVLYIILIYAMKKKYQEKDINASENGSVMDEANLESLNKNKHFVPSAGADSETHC

[3] = molecular target: T3, Solute carrier organic anion transporter family member 2B1 (Homo sapiens, UniProt O94956); experiment: Inhibition of human liver OATP2B1 expressed in HEK293 Flp-In cells assessed as reduction in [3H]E3S uptake at 20 uM incubated for 5 mins by scintillation counting; conditions: hek293, 5 min
T3 sequence (O94956 whole entry): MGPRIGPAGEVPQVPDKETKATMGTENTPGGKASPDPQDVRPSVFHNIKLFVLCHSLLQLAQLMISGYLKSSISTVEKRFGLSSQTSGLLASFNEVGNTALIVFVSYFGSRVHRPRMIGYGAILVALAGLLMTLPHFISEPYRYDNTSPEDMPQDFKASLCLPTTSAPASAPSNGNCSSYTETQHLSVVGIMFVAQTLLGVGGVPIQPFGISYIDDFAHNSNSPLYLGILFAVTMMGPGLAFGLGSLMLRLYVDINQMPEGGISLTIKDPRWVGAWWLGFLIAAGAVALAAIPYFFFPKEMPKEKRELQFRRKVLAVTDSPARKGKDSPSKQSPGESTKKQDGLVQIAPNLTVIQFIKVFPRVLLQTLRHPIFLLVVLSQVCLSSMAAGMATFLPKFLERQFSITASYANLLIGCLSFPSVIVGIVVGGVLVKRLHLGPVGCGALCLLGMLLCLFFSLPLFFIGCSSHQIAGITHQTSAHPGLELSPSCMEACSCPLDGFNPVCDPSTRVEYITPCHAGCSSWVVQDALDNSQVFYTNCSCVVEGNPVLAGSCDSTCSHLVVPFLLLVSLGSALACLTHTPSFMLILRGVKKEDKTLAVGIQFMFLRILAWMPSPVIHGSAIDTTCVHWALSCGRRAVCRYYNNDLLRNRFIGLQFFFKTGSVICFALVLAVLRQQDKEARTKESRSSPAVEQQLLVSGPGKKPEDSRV

| Molecule | INH [1] [%] | INH [2] [%] | INH [3] [%] |
| --- | --- | --- | --- |
| O=C1[C@H](CC[C@H](O)c2ccc(F)cc2)[C@@H](c2ccc(O)cc2)N1c1ccc(F)cc1 [EZETIMIBE] | 1.5 | 55.5 | -8.9 |
| CC[C@@]1(O)C(=O)OCc2c1cc1n(c2=O)Cc2cc3c(CN(C)C)c(O)ccc3nc2-1 [TOPOTECAN] | 17.3 | 36.7 | -39.2 |
| CCc1ccc(CCOc2ccc(CC3SC(=O)NC3=O)cc2)nc1 (configuration not stated) [PIOGLITAZONE] | 5.6 | 21.9 | -9.9 |
| IVERMECTIN | 55.2 | 64.7 | 39 |
| CCC(C)n1ncn(-c2ccc(N3CCN(c4ccc(OCC5COC(Cn6cncn6)(c6ccc(Cl)cc6Cl)O5)cc4)CC3)cc2)c1=O (configuration not stated) [ITRACONAZOLE] | -2.3 | 22.3 | 59.8 |
| C[C@@H]1C[C@H]2[C@@H]3CCC4=CC(=O)C=C[C@]4(C)[C@@]3(F)[C@@H](O)C[C@]2(C)[C@@]1(O)C(=O)CO [DEXAMETHASONE] | 34.2 | 10.7 | -12.5 |
| S=P(N1CC1)(N1CC1)N1CC1 [THIOTEPA] | 0.6 | -40.3 | 16.2 |
| Cc1c(O)cccc1C(=O)N[C@@H](CSc1ccccc1)[C@H](O)CN1C[C@H]2CCCC[C@H]2C[C@H]1C(=O)NC(C)(C)C | 59.3 | 71.3 | 50 |
| CC(C)NCC(O)COc1cccc2ccccc12 (configuration not stated) [PROPRANOLOL] | 12.8 | 8.9 | 10.1 |
| COCc1c(C(C)C)nc(C(C)C)c(/C=C/[C@@H](O)C[C@@H](O)CC(=O)O)c1-c1ccc(F)cc1 [CERIVASTATIN] | 68.1 | 73.6 | 40.1 |
| COc1cc2nc(N3CCN(C(=O)c4ccco4)CC3)nc(N)c2cc1OC [PRAZOSIN] | 36.1 | 25.1 | 1 |
| NC(=O)N1c2ccccc2C=Cc2ccccc21 [CARBAMAZEPINE] | 23.2 | 13.3 | 17.3 |
| C[C@H](CCC(=O)NCC(=O)O)[C@H]1CC[C@H]2[C@@H]3CC[C@@H]4C[C@H](O)CC[C@]4(C)[C@H]3C[C@H](O)[C@]12C [GLYCODEOXYCHOLATE] | 79 | 85 | 53.8 |
| C[C@@H]1NC(=O)[C@H](C[C@@](C)(O)CO)NC(=O)[C@@H]2Cc3c([nH]c4ccccc34)SC[C@H](NC(=O)[C@@H]([C@H](C)O)NC1=O)C(=O)N1C[C@@H](O)C[C@H]1C(=O)N[C@@H](C)C(=O)N2 [PHALLOIDIN] (cyclo(A[dT]C[cisHyp]A[Trp(2-yl)][Leu(4R-OH,5-OH)]); thioether 3-6) | 36.2 | 26.1 | 24.1 |
| CCOC(=O)[C@H](CCc1ccccc1)N[C@@H](C)C(=O)N1CCC[C@H]1C(=O)O | 4.1 | -7.5 | 19.7 |
| Cc1cn([C@H]2C[C@H](N=[N+]=[N-])[C@@H](CO)O2)c(=O)[nH]c1=O [ZIDOVUDINE] | 7.1 | 9.5 | 4.7 |
| CN(C)[C@@H]1C(O)=C(C(N)=O)C(=O)[C@@]2(O)C(O)=C3C(=O)c4c(O)cccc4[C@@](C)(O)[C@H]3C[C@@H]12 [TETRACYCLINE] | 29.5 | 22.1 | 51.1 |

| Molecule | INH [1] [%] | INH [2] [%] | INH [3] [%] |
| --- | --- | --- | --- |
| COc1ccnc(C[S+]([O-])c2nc3ccc(OC(F)F)cc3[nH]2)c1OC (configuration not stated) [PANTOPRAZOLE] | 23.4 | 15.2 | 17.3 |
| OC(Cn1cncn1)(Cn1cncn1)c1ccc(F)cc1F [FLUCONAZOLE] | 7.5 | 7.4 | 34.1 |
| CCCCNC(=O)NS(=O)(=O)c1ccc(C)cc1 [TOLBUTAMIDE] | 5.8 | 9.1 | 15.5 |
| C[C@H](CCC(=O)O)[C@H]1CC[C@H]2[C@@H]3[C@H](O)C[C@@H]4C[C@H](O)CC[C@]4(C)[C@H]3C[C@H](O)[C@]12C [CHOLIC ACID] | 40.8 | 41.6 | 20.2 |
| O=c1c(O)c(-c2ccc(O)cc2O)oc2cc(O)cc(O)c12 [MORIN] | 78.5 | 85.2 | 71.3 |
| CCCc1nn(C)c2c(=O)[nH]c(-c3cc(S(=O)(=O)N4CCN(C)CC4)ccc3OCC)nc12 | 30.8 | 22.2 | 45.9 |
| CNCCC(Oc1ccc(C(F)(F)F)cc1)c1ccccc1 (configuration not stated) [FLUOXETINE] | 14.3 | 21.8 | 22.6 |
| O=C(NCCN1CCOCC1)c1ccc(Cl)cc1 [MOCLOBEMIDE] | -3.3 | 1.7 | 27.5 |
| Fc1ccc([C@@H]2CCNC[C@H]2COc2ccc3c(c2)OCO3)cc1 [PAROXETINE] | 12.7 | 33 | 37.5 |
| C[C@@H]1O[C@@H](O[C@H]2[C@H](Oc3cc(O)c4c(c3)O[C@H](c3ccc(O)cc3)CC4=O)O[C@H](CO)[C@@H](O)[C@@H]2O)[C@H](O)[C@H](O)[C@H]1O [NARINGIN] | 37.7 | 34 | 47.1 |
| c1cnc2cc3c(cc2n1)[C@@H]1CNC[C@H]3C1 [VARENICLINE] | 0.8 | 24.7 | 27.3 |
| Nc1nnc(-c2cccc(Cl)c2Cl)c(N)n1 [LAMOTRIGINE] | 14.5 | 24.9 | 13.6 |
| Clc1ccccc1C(c1ccccc1)(c1ccccc1)n1ccnc1 [CLOTRIMAZOLE] | -120.4 | 32.3 | -37.1 |
| CCCC1O[C@@H]2C[C@H]3[C@@H]4CCC5=CC(=O)C=C[C@]5(C)[C@H]4[C@@H](O)C[C@]3(C)[C@]2(C(=O)CO)O1 (some centres not stated) [BUDESONIDE] | 79 | 73.2 | 30.3 |
| COc1ccccc1OCC(O)CN1CCN(CC(=O)Nc2c(C)cccc2C)CC1 (configuration not stated) [RANOLAZINE] | -14.9 | 4.3 | 41.6 |
| Cc1nc2c([nH]1)c(=O)n(C)c(=O)n2Cc1ccco1 [FURAFYLLINE] | 0.7 | -14.7 | 18.1 |
| COc1ccc2c(c1)c(CC(=O)O)c(C)n2C(=O)c1ccc(Cl)cc1 [INDOMETHACIN] | 48.6 | 88.6 | -82.4 |
